# Measurements reported in PubChem BioAssay (NCI).
#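 Step 1: Grow cells in 96-well plates. Step 2: Expose to compound for 48 hours at 5 concentrations. Step 3: Interpolate endpoints linearly; if unreached, use highest concentration. TGI is the concentration that stops growth completely.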
# Tests used:
# Assay in all cases: NCI anticancer screen, dose series, 48 h
# K-562 leukemia = test system: K-562 leukemia
# ACHN renal = test system: ACHN renal
# LOX IMVI melanoma = test system: LOX IMVI melanoma
# OVCAR-5 ovarian = test system: OVCAR-5 ovarian
# MDA-N = test system: MDA-N
# HOP-92 NSCLC = test system: HOP-92 NSCLC
# IGROV1 ovarian = test system: IGROV1 ovarian
# MDA-MB-231 breast = test system: MDA-MB-231 breast
# SN12C renal = test system: SN12C renal
# HS 578T breast = test system: HS 578T breast
# HOP-62 NSCLC = test system: HOP-62 NSCLC
# M14 melanoma = test system: M14 melanoma
# SNB-75 CNS = test system: SNB-75 CNS
# UACC-257 melanoma = test system: UACC-257 melanoma
# NCI-H226 lung = test system: NCI-H226 lung
# T-47D breast = test system: T-47D breast
# 786-0 renal = test system: 786-0 renal
# HCT-15 colon = test system: HCT-15 colon
# EKVX NSCLC = test system: EKVX NSCLC
# A549 NSCLC = test system: A549 NSCLC
# CCRF-CEM leukemia = test system: CCRF-CEM leukemia
# RXF 393 renal = test system: RXF 393 renal
# DU-145 prostate = test system: DU-145 prostate
# MCF7 breast = test system: MCF7 breast
# A498 renal = test system: A498 renal
# NCI-H23 lung = test system: NCI-H23 lung
# KM12 colon = test system: KM12 colon
# SK-MEL-5 melanoma = test system: SK-MEL-5 melanoma
# RPMI-8226 leukemia = test system: RPMI-8226 leukemia
# SF-268 CNS = test system: SF-268 CNS
# COLO 205 colon = test system: COLO 205 colon
# SF-539 CNS = test system: SF-539 CNS
# SF-295 CNS = test system: SF-295 CNS
# HCT-116 colon = test system: HCT-116 colon
# NCI/ADR-RES ovarian = test system: NCI/ADR-RES ovarian
# SNB-19 CNS = test system: SNB-19 CNS
# SW-620 colon = test system: SW-620 colon
# MALME-3M melanoma = test system: MALME-3M melanoma
# HT29 colon = test system: HT29 colon
# OVCAR-8 ovarian = test system: OVCAR-8 ovarian
# MDA-MB-435 = test system: MDA-MB-435
# SK-MEL-28 melanoma = test system: SK-MEL-28 melanoma
# PC-3 prostate = test system: PC-3 prostate
# CAKI-1 renal = test system: CAKI-1 renal
# MOLT-4 leukemia = test system: MOLT-4 leukemia
# NCI-H522 lung = test system: NCI-H522 lung
# TK-10 renal = test system: TK-10 renal
# OVCAR-4 ovarian = test system: OVCAR-4 ovarian
# UACC-62 melanoma = test system: UACC-62 melanoma
# HL-60(TB) leukemia = test system: HL-60(TB) leukemia
# U251 CNS = test system: U251 CNS
# SK-MEL-2 melanoma = test system: SK-MEL-2 melanoma
# HCC-2998 colon = test system: HCC-2998 colon
# OVCAR-3 ovarian = test system: OVCAR-3 ovarian
# NCI-H460 lung = test system: NCI-H460 lung
# BT-549 breast = test system: BT-549 breast
# UO-31 renal = test system: UO-31 renal
# SK-OV-3 ovarian = test system: SK-OV-3 ovarian
# SR leukemia = test system: SR leukemia
smiles,measurement,setting,value
COc1cc2c3c([nH]c2c(OC)c1OC)CCN(Cc1ccccc1)C3,TGI,K-562 leukemia,84.2 µM
same,TGI,ACHN renal,> 100 µM
same,TGI,LOX IMVI melanoma,32.1 µM
same,TGI,OVCAR-5 ovarian,> 100 µM
same,TGI,MDA-N,33.9 µM
same,TGI,HOP-92 NSCLC,41.5 µM
same,TGI,IGROV1 ovarian,> 100 µM
same,TGI,MDA-MB-231 breast,> 100 µM
same,TGI,SN12C renal,> 100 µM
same,TGI,HS 578T breast,> 100 µM
same,TGI,HOP-62 NSCLC,> 100 µM
same,TGI,M14 melanoma,30 µM
same,TGI,SNB-75 CNS,> 100 µM
same,TGI,UACC-257 melanoma,40 µM
same,TGI,NCI-H226 lung,> 100 µM
same,TGI,T-47D breast,68.6 µM
same,TGI,786-0 renal,> 100 µM
same,TGI,HCT-15 colon,> 100 µM
same,TGI,EKVX NSCLC,> 100 µM
same,TGI,A549 NSCLC,> 100 µM
same,TGI,CCRF-CEM leukemia,> 100 µM
same,TGI,RXF 393 renal,> 100 µM
same,TGI,DU-145 prostate,> 100 µM
same,TGI,MCF7 breast,41.8 µM
same,TGI,A498 renal,72.3 µM
same,TGI,NCI-H23 lung,> 100 µM
same,TGI,KM12 colon,> 100 µM
same,TGI,SK-MEL-5 melanoma,34.9 µM
same,TGI,RPMI-8226 leukemia,52.5 µM
same,TGI,SF-268 CNS,> 100 µM
same,TGI,COLO 205 colon,32 µM
same,TGI,SF-539 CNS,38.5 µM
same,TGI,SF-295 CNS,> 100 µM
same,TGI,HCT-116 colon,> 100 µM
same,TGI,NCI/ADR-RES ovarian,> 100 µM
same,TGI,SNB-19 CNS,> 100 µM
same,TGI,SW-620 colon,> 100 µM
same,TGI,MALME-3M melanoma,38.1 µM
same,TGI,HT29 colon,49.9 µM
same,TGI,OVCAR-8 ovarian,> 100 µM
same,TGI,MDA-MB-435,35 µM
same,TGI,SK-MEL-28 melanoma,50.5 µM
same,TGI,PC-3 prostate,> 100 µM
same,TGI,CAKI-1 renal,> 100 µM
same,TGI,MOLT-4 leukemia,> 100 µM
same,TGI,NCI-H522 lung,> 100 µM
same,TGI,TK-10 renal,78.9 µM
same,TGI,OVCAR-4 ovarian,> 100 µM
same,TGI,UACC-62 melanoma,> 100 µM
same,TGI,HL-60(TB) leukemia,> 100 µM
same,TGI,U251 CNS,87.4 µM
same,TGI,SK-MEL-2 melanoma,47.1 µM
same,TGI,HCC-2998 colon,34.6 µM
same,TGI,OVCAR-3 ovarian,> 100 µM
same,TGI,NCI-H460 lung,63.5 µM
NC(N)=NCCC(O)(P(=O)(O)O)P(=O)(O)O,TGI,ACHN renal,> 100 µM
same,TGI,LOX IMVI melanoma,> 100 µM
same,TGI,OVCAR-5 ovarian,> 100 µM
same,TGI,MDA-N,> 100 µM
same,TGI,IGROV1 ovarian,> 100 µM
same,TGI,MDA-MB-231 breast,> 100 µM
same,TGI,HS 578T breast,57.4 µM
same,TGI,HOP-62 NSCLC,> 100 µM
same,TGI,M14 melanoma,> 100 µM
same,TGI,BT-549 breast,> 100 µM
same,TGI,UO-31 renal,> 100 µM
same,TGI,UACC-257 melanoma,> 100 µM
same,TGI,NCI-H226 lung,> 100 µM
same,TGI,786-0 renal,> 100 µM
same,TGI,HCT-15 colon,> 100 µM
same,TGI,EKVX NSCLC,> 100 µM
same,TGI,A549 NSCLC,> 100 µM
same,TGI,RXF 393 renal,> 100 µM
same,TGI,DU-145 prostate,> 100 µM
same,TGI,MCF7 breast,> 100 µM
same,TGI,NCI-H23 lung,> 100 µM
same,TGI,KM12 colon,> 100 µM
same,TGI,SK-MEL-5 melanoma,> 100 µM
same,TGI,SF-268 CNS,> 100 µM
same,TGI,COLO 205 colon,> 100 µM
same,TGI,SF-539 CNS,> 100 µM
same,TGI,SF-295 CNS,> 100 µM
same,TGI,HCT-116 colon,> 100 µM
same,TGI,NCI/ADR-RES ovarian,> 100 µM
same,TGI,SNB-19 CNS,> 100 µM
same,TGI,SK-OV-3 ovarian,> 100 µM
same,TGI,MALME-3M melanoma,> 100 µM
same,TGI,PC-3 prostate,> 100 µM
same,TGI,CAKI-1 renal,> 100 µM
same,TGI,NCI-H522 lung,> 100 µM
same,TGI,TK-10 renal,> 100 µM
same,TGI,UACC-62 melanoma,> 100 µM
same,TGI,HCC-2998 colon,> 100 µM
same,TGI,OVCAR-3 ovarian,> 100 µM
same,TGI,NCI-H460 lung,> 100 µM
C=CCOc1ccc(C2C(C(=O)OC)C(=O)CC(O)(c3ccccc3)C2C(=O)OC)cc1OC (centres undefined),TGI,K-562 leukemia,> 100 µM
same,TGI,ACHN renal,> 100 µM
same,TGI,LOX IMVI melanoma,> 100 µM
same,TGI,OVCAR-5 ovarian,> 100 µM
same,TGI,MDA-N,> 100 µM
same,TGI,HOP-92 NSCLC,38.5 µM
same,TGI,IGROV1 ovarian,> 100 µM
same,TGI,MDA-MB-231 breast,38.2 µM
same,TGI,SR leukemia,> 100 µM
same,TGI,SN12C renal,> 100 µM
same,TGI,HOP-62 NSCLC,> 100 µM
same,TGI,SNB-75 CNS,98.3 µM
same,TGI,BT-549 breast,> 100 µM
same,TGI,UO-31 renal,61.8 µM
same,TGI,UACC-257 melanoma,> 100 µM
same,TGI,NCI-H226 lung,60.3 µM
same,TGI,T-47D breast,46.9 µM
same,TGI,786-0 renal,39 µM
same,TGI,HCT-15 colon,> 100 µM
same,TGI,EKVX NSCLC,> 100 µM
same,TGI,A549 NSCLC,> 100 µM
same,TGI,CCRF-CEM leukemia,> 100 µM
same,TGI,RXF 393 renal,37.2 µM
same,TGI,DU-145 prostate,> 100 µM
same,TGI,MCF7 breast,61.3 µM
same,TGI,A498 renal,76.4 µM
same,TGI,NCI-H23 lung,> 100 µM
same,TGI,KM12 colon,> 100 µM
same,TGI,SK-MEL-5 melanoma,> 100 µM
same,TGI,SF-268 CNS,52.7 µM
same,TGI,COLO 205 colon,> 100 µM
same,TGI,SF-295 CNS,> 100 µM
same,TGI,HCT-116 colon,49.8 µM
same,TGI,NCI/ADR-RES ovarian,66 µM
same,TGI,SNB-19 CNS,> 100 µM
same,TGI,SW-620 colon,> 100 µM
same,TGI,MALME-3M melanoma,> 100 µM
same,TGI,HT29 colon,> 100 µM
same,TGI,OVCAR-8 ovarian,50.4 µM
same,TGI,MDA-MB-435,> 100 µM
same,TGI,SK-MEL-28 melanoma,> 100 µM
same,TGI,PC-3 prostate,> 100 µM
same,TGI,CAKI-1 renal,> 100 µM
same,TGI,MOLT-4 leukemia,> 100 µM
same,TGI,NCI-H522 lung,50.5 µM
same,TGI,TK-10 renal,> 100 µM
same,TGI,OVCAR-4 ovarian,69.5 µM
same,TGI,UACC-62 melanoma,> 100 µM
same,TGI,HL-60(TB) leukemia,> 100 µM
same,TGI,U251 CNS,> 100 µM
same,TGI,SK-MEL-2 melanoma,> 100 µM
same,TGI,HCC-2998 colon,> 100 µM
same,TGI,OVCAR-3 ovarian,> 100 µM
same,TGI,NCI-H460 lung,> 100 µM
COc1cc(Nc2nc3cc(C(F)(F)F)ccc3n3cccc23)cc(OC)c1OC,TGI,K-562 leukemia,> 100 µM
same,TGI,ACHN renal,> 100 µM
same,TGI,OVCAR-5 ovarian,> 100 µM
same,TGI,MDA-N,> 100 µM
same,TGI,HOP-92 NSCLC,> 100 µM
same,TGI,IGROV1 ovarian,> 100 µM
same,TGI,SN12C renal,> 100 µM
same,TGI,HS 578T breast,> 100 µM
same,TGI,HOP-62 NSCLC,> 100 µM
same,TGI,M14 melanoma,> 100 µM
same,TGI,SNB-75 CNS,> 100 µM
same,TGI,BT-549 breast,> 100 µM
same,TGI,UO-31 renal,> 100 µM
same,TGI,UACC-257 melanoma,> 100 µM
same,TGI,T-47D breast,9.91 µM
same,TGI,HCT-15 colon,> 100 µM
same,TGI,EKVX NSCLC,> 100 µM
same,TGI,A549 NSCLC,> 100 µM
same,TGI,CCRF-CEM leukemia,> 100 µM
same,TGI,RXF 393 renal,> 100 µM
same,TGI,DU-145 prostate,> 100 µM
same,TGI,MCF7 breast,> 100 µM
same,TGI,A498 renal,> 100 µM
same,TGI,NCI-H23 lung,> 100 µM
same,TGI,SK-MEL-5 melanoma,> 100 µM
same,TGI,RPMI-8226 leukemia,> 100 µM
same,TGI,SF-268 CNS,> 100 µM
same,TGI,COLO 205 colon,> 100 µM
same,TGI,SF-539 CNS,> 100 µM
same,TGI,SF-295 CNS,> 100 µM
same,TGI,HCT-116 colon,> 100 µM
same,TGI,NCI/ADR-RES ovarian,> 100 µM
same,TGI,SNB-19 CNS,> 100 µM
same,TGI,SW-620 colon,> 100 µM
same,TGI,SK-OV-3 ovarian,> 100 µM
same,TGI,MALME-3M melanoma,> 100 µM
same,TGI,OVCAR-8 ovarian,> 100 µM
same,TGI,MDA-MB-435,> 100 µM
same,TGI,SK-MEL-28 melanoma,> 100 µM
same,TGI,PC-3 prostate,> 100 µM
same,TGI,CAKI-1 renal,> 100 µM
same,TGI,MOLT-4 leukemia,> 100 µM
same,TGI,NCI-H522 lung,> 100 µM
same,TGI,TK-10 renal,> 100 µM
same,TGI,UACC-62 melanoma,> 100 µM
same,TGI,HL-60(TB) leukemia,> 100 µM
same,TGI,U251 CNS,> 100 µM
same,TGI,SK-MEL-2 melanoma,> 100 µM
same,TGI,HCC-2998 colon,> 100 µM
same,TGI,OVCAR-3 ovarian,> 100 µM
